Results: publication PMC9920246, “Entinostat-Bortezomib Hybrids against Multiple Myeloma” (Molecules, 2023)

Experiments:
RPMI 8226 cells = experiment: Antiproliferative assay (XTT, 72 h); type: cell-based, human; conditions: Homo sapiens; RPMI 8226 cells, 72 h, XTT, mean ± SD, n = 3
26S proteasome = molecular target: T1, 26S proteasome (Homo sapiens, UniProt P28074); experiment: Proteasome inhibitory activity (Suc-LLVY-amc) in RPMI 8226 cell lysate; type: biochemical; conditions: 26S proteasome in RPMI 8226 cell lysate, 30 min preincubation, Suc-LLVY-amc 100 µM, mean ± SD, n = 3; read-out: IC50 Value PI Activity
T1 sequence (P28074 60-263): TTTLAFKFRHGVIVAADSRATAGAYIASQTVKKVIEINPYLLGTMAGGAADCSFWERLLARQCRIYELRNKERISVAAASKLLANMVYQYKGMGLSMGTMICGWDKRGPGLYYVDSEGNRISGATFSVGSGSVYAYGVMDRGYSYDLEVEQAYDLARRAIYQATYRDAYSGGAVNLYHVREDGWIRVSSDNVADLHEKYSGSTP
Experimental: RPMI 8226 cells (1 × 10^6 cells/mL) were collected, centrifuged, and washed twice with cold PBS (Gibco). The supernatant was discarded, and 200 μL of ice-cold lysis buffer (NP40 cell lysis buffer (Invitrogen, Eugene, OR, USA), supplemented with 1 mM PMSF (Sigma) and protease inhibitor cocktail (Sigma), was added to the pellet. Cells were kept on ice for 30 min and vortexed every 10 min. Samples were then centrifuged at 4 °C for 10 min at 16,000× g. Supernatant containing the proteins was collected. Protein quantification was performed using the Coomassie (Bradford) Protein Assay Kit (ThermoFisher, Waltham, MA, USA) following the manufacturer instructions. In each well of a 96-well black plate (ThermoFisher), 10 µg of proteins were mixed with assay buffer (50 mM Tris-HCl, pH 7.5, 40 mM KCl, 5 mM MgCl2, 0.5 mM ATP, 1 mM DTT, 0.5 mg/mL BSA) in 180 µL total volume. […] The plate was then incubated for 30 min at 37 °C. After incubation, the reaction was started by adding the fluorometric peptide substrate Suc-LLVY-amc (Bio-Techne, Minneapolis, MN, USA) at a final concentration of 100 µM, except for the blank wells. Following 1 h incubation at 37 °C in the dark, the fluorescence signal was red (excitation: 380 nm, emission: 440–460 nm) using a Cytation 3 plate reader (BioTek). The percentage of 26S proteasome activity was measured by comparing the fluorescence of the sample treated with the vehicle control wells and multiplied by 100. The IC50 value was calculated as mentioned above, and each compound was tested in triplicate in three independent experiments.

Compound: CC(C)C[C@H](NC(=O)[C@@H](Cc1ccccc1)NC(=O)Cc1ccc(C(=O)Nc2ccccc2N)cc1)B1OC2CC3CC(C3(C)C)[C@@]2(C)O1 (stereo partly drawn) [Compound 6, N-(2-aminophenyl)-4-(2-(((2R)-1-(((1R)-3-methyl-1-((3aR)-3a,5,5-trimethylhexahydro-4,6-methanobenzo[d][1,3,2]dioxaborol-2-yl)butyl)amino)-1-oxo-3-phenylpropan-2-yl)amino)-2-oxoethyl)benzamide]
- IC50 (RPMI 8226 cells): 337 ± 49.4 nM
- IC50 (26S proteasome): > 50 nM

Compound: CC(C)C[C@H](NC(=O)c1cnc(C(=O)Nc2ccccc2N)cn1)B1OC2CC3CC(C3(C)C)[C@]2(C)O1 (stereo partly drawn) [Compound 10, N^2-(2-aminophenyl)-N^5-((1R)-3-methyl-1-((3aS)-3a,5,5-trimethylhexahydro-4,6-methanobenzo[d][1,3,2]dioxaborol-2-yl)butyl)pyrazine-2,5-dicarboxamide]
- IC50 (RPMI 8226 cells): > 2000 nM
- IC50 (26S proteasome): > 50 nM

Compound: CC(C)C[C@H](NC(=O)[C@@H](Cc1ccccc1)NC(=O)c1ccc(C(=O)NCc2ccc(C(=O)Nc3ccccc3N)cc2)cc1)B1OC2CC3CC(C3(C)C)[C@@]2(C)O1 (stereo partly drawn) [Compound 4, N^1-(4-((2-aminophenyl)carbamoyl)benzyl)-N^4-((2R)-1-(((1R)-3-methyl-1-((3aR)-3a,5,5-trimethylhexahydro-4,6-methanobenzo[d][1,3,2]dioxaborol-2-yl)butyl)amino)-1-oxo-3-phenylpropan-2-yl)terephthalamide]
- IC50 (RPMI 8226 cells): 802 ± 72.7 nM
- IC50 (26S proteasome): > 50 nM

Compound: CC(C)CC(NC(=O)C(Cc1ccccc1)NC(=O)CCC(=O)NCc1ccc(C(=O)Nc2ccccc2N)cc1)B1OC2CC3CC(C3(C)C)C2(C)O1 [Compound 1, N^1-(4-((2-aminophenyl)carbamoyl)benzyl)-N^4-((2R)-1-(((1R)-3-methyl-1-((3aR)-3a,5,5-trimethylhexahydro-4,6-methanobenzo[d][1,3,2]dioxaborol-2-yl)butyl)amino)-1-oxo-3-phenylpropan-2-yl)succinimide]
- IC50 (RPMI 8226 cells): 678 ± 42.5 nM
- IC50 (26S proteasome): 10.3 ± 2.7 nM
